Measurements as given in PubChem BioAssay (NCI).
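GI50 marks 50% less growth. TGI denotes the concentration required for complete inhibition of growth.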

Columns and labels:
Assay in all cases: growth of human tumour cells (NCI), 384-well format
[1] = test system: A498 renal
[2] = test system: A549 NSCLC
[3] = test system: ACHN renal
[4] = test system: MDA-MB-231 breast
[5] = test system: MDA-MB-435 melanoma
[6] = test system: MDA-MB-468 breast
[7] = test system: MOLT-4 leukemia
[8] = test system: NCI-H322M lung
[9] = test system: OVCAR-8 ovarian
[10] = test system: SF-295 CNS
[11] = test system: SF-539 CNS
[12] = test system: SK-MEL-5 melanoma
[13] = test system: SR leukemia

## O=C(c1ccccc1O)c1[nH]c(Cl)c(Cl)c1-n1c(C(=O)c2ccccc2O)cc(Cl)c1Cl
[1]
  GI50: 399 nM
  TGI: 1760 nM
[2]
  GI50: 654 nM
  TGI: 2480 nM
[3]
  GI50: 649 nM
  TGI: 2780 nM
[4]
  GI50: 424 nM
  TGI: 1450 nM
[5]
  GI50: 801 nM
  TGI: 3050 nM
[6]
  GI50: 13 nM
  TGI: 267 nM
[7]
  GI50: 301 nM
  TGI: 768 nM
[8]
  GI50: 302 nM
  TGI: 1020 nM
[9]
  GI50: 276 nM
  TGI: 959 nM
[10]
  GI50: 448 nM
  TGI: 1300 nM
[11]
  GI50: 537 nM
  TGI: 1630 nM
[12]
  GI50: 417 nM
  TGI: 913 nM
[13]
  GI50: 340 nM
  TGI: 1100 nM
